{"source": "paper PMC5539077", "about": "“Functional Characterization of a Missing Branch Component in Haematococcus pluvialis for Control of Algal Carotenoid Biosynthesis” (Frontiers in Plant Science, 2017)", "key": {"HpLCYE": {"molecular_target": "T1, HpLCYE (Haematococcus lacustris, UniProt A0A0K1HSD1)", "T1 construct": "full ORF, 575 aa, codon-optimised, expressed from pACCRT-EIB plasmid in carotenoid-accumulating E. coli DH5alpha; no tag told", "T1 sequence (A0A0K1HSD1 1-575)": "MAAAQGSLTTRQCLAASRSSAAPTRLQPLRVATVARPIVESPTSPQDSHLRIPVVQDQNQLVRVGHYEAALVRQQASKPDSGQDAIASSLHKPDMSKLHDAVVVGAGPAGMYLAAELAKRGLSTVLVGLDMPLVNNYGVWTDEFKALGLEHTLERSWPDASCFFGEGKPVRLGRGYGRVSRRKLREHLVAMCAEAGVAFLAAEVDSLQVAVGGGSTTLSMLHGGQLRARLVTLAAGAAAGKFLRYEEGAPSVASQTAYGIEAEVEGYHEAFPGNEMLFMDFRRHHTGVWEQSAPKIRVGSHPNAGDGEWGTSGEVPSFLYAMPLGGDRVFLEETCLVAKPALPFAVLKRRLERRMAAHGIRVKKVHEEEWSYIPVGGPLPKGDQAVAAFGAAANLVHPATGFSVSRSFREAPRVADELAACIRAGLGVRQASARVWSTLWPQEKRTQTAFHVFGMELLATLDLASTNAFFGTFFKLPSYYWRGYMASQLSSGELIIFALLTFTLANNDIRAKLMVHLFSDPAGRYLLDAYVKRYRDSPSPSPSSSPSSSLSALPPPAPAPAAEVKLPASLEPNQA", "assay": "E. coli complementation, UPLC product profile", "format": "cell-based", "details": "30 then 25 °C"}, "HpLCYB": {"molecular_target": "T2, HpLCYB (Haematococcus lacustris, UniProt A0A1S6KDX2)", "T2 construct": "full ORF, 568 aa, expressed from pACCRT-EIB plasmid in carotenoid-accumulating E. coli DH5alpha; no tag told", "T2 sequence (A0A1S6KDX2 1-568)": "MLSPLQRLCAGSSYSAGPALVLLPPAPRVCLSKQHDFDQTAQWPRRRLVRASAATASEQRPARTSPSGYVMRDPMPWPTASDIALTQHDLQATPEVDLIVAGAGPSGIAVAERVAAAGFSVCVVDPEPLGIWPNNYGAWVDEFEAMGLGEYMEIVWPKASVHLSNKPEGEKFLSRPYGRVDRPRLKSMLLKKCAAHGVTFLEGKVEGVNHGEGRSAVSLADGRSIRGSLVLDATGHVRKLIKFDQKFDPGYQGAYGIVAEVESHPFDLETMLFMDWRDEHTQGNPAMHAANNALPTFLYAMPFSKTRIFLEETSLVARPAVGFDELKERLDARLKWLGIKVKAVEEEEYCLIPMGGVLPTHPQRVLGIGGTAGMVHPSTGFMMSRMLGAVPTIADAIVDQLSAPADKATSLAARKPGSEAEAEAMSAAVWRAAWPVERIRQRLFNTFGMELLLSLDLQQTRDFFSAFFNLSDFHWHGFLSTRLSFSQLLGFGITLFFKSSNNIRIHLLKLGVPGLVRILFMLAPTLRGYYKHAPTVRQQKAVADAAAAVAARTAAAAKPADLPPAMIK", "assay": "E. coli complementation, UPLC product profile", "format": "cell-based", "details": "lycopene-accumulating E. coli DH5alpha (pACCRT-EIB-B), 30 then 25 °C; product beta-carotene"}, "HpLCYB (purified)": {"molecular_target": "HpLCYB (purified) (Haematococcus lacustris, UniProt A0A1S6KDX2)", "assay": "in vitro cyclase assay, UPLC", "format": "biochemical", "details": "50 mM gamma-carotene as printed, 0.1 M Tris-HCl pH 7.0, 10% glycerol, 5 mM DTT, 1 mM EDTA, 30 °C, 1 h; product beta-carotene"}}, "data": [{"smiles": "CC(C)=CCC/C(C)=C/C=C/C(C)=C/C=C/C(C)=C/C=C/C=C(C)/C=C/C=C(C)/C=C/C=C(\\C)CCC=C(C)C", "note": "[lycopene]", "values": [{"measurement": "E. coli complementation, UPLC product profile", "setting": "HpLCYE; lycopene-accumulating E. coli DH5alpha (pACCRT-EIB-E), product delta-carotene", "result": "HpLCYE cyclized only one end of lycopene to synthesize δ-carotene"}, {"measurement": "E. coli complementation, UPLC product profile", "setting": "HpLCYB", "result": "HpLCYB could cyclize both ends of lycopene to form β-carotene"}]}, {"smiles": "CC(C)=CCC/C(C)=C/C=C/C(C)=C/C=C/C(C)=C/C=C/C=C(C)/C=C/C=C(\\C)CC/C=C(\\C)CCC=C(C)C", "note": "[neurosporene]", "values": [{"measurement": "E. coli complementation, UPLC product profile", "setting": "HpLCYE; neurosporene-accumulating E. coli DH5alpha (pACCRT-EIBneurE), product alpha-zeacarotene", "result": "neurosporene produced by pACCRT-EIBneur was probably transformed into α-, and β-zeacarotene, respectively"}]}, {"smiles": "CC(C)=CCC/C(C)=C/C=C/C(C)=C/C=C/C(C)=C/C=C/C=C(C)/C=C/C=C(C)/C=C/C1=C(C)CCCC1(C)C", "note": "[γ-carotene]", "values": [{"measurement": "in vitro cyclase assay, UPLC", "setting": "HpLCYB (purified)", "result": "HpLCYB further cyclized γ-carotene to form β-carotene"}]}]}
